Results on 18 molecules are retold here after patent US6930118B2, “3-Oxadiazol-5-yl-1-aminoalkyl-1h-indole derivatives” (Amrad Operations Pty. Ltd., priority 2001, dated 2005).

Data set [1] concerns the target T1, CB1 receptor (Mus musculus, UniProt P47746).
T1 construct: Mouse vasa deferentia were dissected with capsular connective tissue intact and set up in 20 ml organ baths; from tissue; host or cells: mouse (Swiss white) isolated vas deferens
The data set is described as follows: Mouse electrically-stimulated isolated vas deferens bioassay (MVD). It is filed as cell-based. The following applies: decrease of electrically evoked twitch force; for inhibition at 1 µM: read-out: CB1 (MVD) % inh at 1.0 μM. The protocol:
Functional activity of the compounds was assayed using the mouse electrically-stimulated vas deferens bioassay, a measure of CB1 receptor function (24,25). […] CB2 functionality may be investigated using assays known to those skilled in the art; for example those described in U.S. Pat. No. 6,013,648.
Swiss white mice (35-40 g) were killed by exposure to 80% CO2 in O2 and exsanguination. Mouse vasa deferentia were dissected with capsular connective tissue intact and set up in 20 ml organ baths at 37° C. in Mg^2+-free physiological salt solution. The upper (epididymal) end was attached to an isometric force transducer (Grass FTO3C) and the lower (prostatic) end tied to a fixed support between two parallel platinum field electrodes (5 mm apart, 5 mm long). The tissue was initially stretched by 0.5 g force and allowed to equilibrate 10 min. The tissues were stimulated (Grass S88 stimulator) to contract using trains of electrical field stimulation of 3 pulses (4 Hz), 0.5 ms duration, 100 V (80% maximal voltage) every 20 s for 10 min. This electrical stimulation period was applied before and after both antagonist and agonist addition. Output from the transducer amplifier was recorded on a flat bed recorder (Gould BS 272, Cleveland, Ohio, U.S.A.). All drugs were dissolved in dimethyl sulfoxide (DMSO; Sigma, St Louis, Mo., U.S.A.) and allowed to equilibrate with the tissue for 30 min before the responses to field stimulation were assessed. Drug effects were measured as the percentage decrease of the pre-drug twitch force.

The next data set addresses T2, CB2 receptor (Rattus norvegicus, UniProt Q9QZN9).
T2 sequence (Q9QZN9 1-343 limits assumed): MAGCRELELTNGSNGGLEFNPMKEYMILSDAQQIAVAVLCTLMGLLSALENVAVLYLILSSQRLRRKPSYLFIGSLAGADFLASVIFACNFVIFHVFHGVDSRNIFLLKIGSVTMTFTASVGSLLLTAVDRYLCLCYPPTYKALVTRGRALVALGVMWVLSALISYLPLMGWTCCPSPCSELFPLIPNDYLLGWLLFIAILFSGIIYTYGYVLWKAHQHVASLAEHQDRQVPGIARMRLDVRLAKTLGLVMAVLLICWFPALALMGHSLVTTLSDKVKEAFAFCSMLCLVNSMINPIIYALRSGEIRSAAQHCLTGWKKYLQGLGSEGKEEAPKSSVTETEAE
The data set is described as follows: Radioligand binding assay, rat spleen membranes. As to the method: (§1) The affinity of compounds at cannabinoid receptors is routinely assessed using ligand binding assays known to those skilled in the art. Radioligand binding assays were conducted using rat cerebellum or rat spleen. The cerebellum of the rat is known to express predominantly, if not exclusively, the CB1 receptor subtype (20,21). Thus, binding constants obtained from these studies are characterised by a single affinity value, as only one receptor type is labelled. […] In contrast, biphasic binding curves in the spleen characterised by two affinity constants represent the profile of compounds showing selectivity for one receptor subtype over another. In order to determine the order of selectivity, the high and low affinity values obtained for these compounds in the spleen binding assays were compared to the single affinity estimates obtained for the cerebellum (CB1) assays.
Sprague Dawley rats (200-300 g) were killed by gassing with 80% CO2 in O2 and decapitation and the spleen excised rapidly and placed in ice-cold Tris-HCl buffer (Tris 50 mM, MgCl2 3 mM, EGTA 0.2 mM, pH 7.4). The spleen was weighed and diced using a scalpel before homogenisation in 10 volumes of Tris-HCl buffer. The homogenate was then made up to 20 volumes and centrifuged (12,600 g, 5 min, 4° C.), the supernatant was retained and centrifuged (23,800 g, 20 min, 4° C.). The pellet was resuspended in 10 volumes of buffer and assayed for protein content using the method of Bradford (Bradford, 1976) with BSA as the standard. The homogenate was then recentrifuged and the final pellet resuspended in Tris-HCl buffer at a protein concentration of 5 mg/ml and stored in 500 μl aliquots at −80° C. until used for the binding assay.
(§2) Ligand binding assays were performed in polypropylene tubes in a total volume of 1 ml containing Tris-HCl buffer, a final concentration of 1 mg/ml BSA, and varying concentrations of drugs. Tubes contained 30 μg of membrane protein and incubation was started by the addition of 100 μl of either 0.5 nM [^3H]SR141716A or 0.2 nM [^3H]WIN 55,212-2. Experiments were carried out in triplicate at 30° C. for 90 min with non-specific binding being defined as radioligand binding in the presence of 1 μM unlabelled WIN 55,212-2. Incubations were terminated by rapid filtration with a M-24 Cell Harvester (Brandel; Gaithersburg, Md., U.S.A.) using ice-cold Tris-HCl buffer containing 0.5 mg/ml BSA. Filters (Wattman GF/B) were soaked for 2 h prior to filtering in a solution of Tris-HCl buffer containing 3 mg/ml BSA and 0.5% w/w polyethyleneimine (PEI). Filters were left to dry thoroughly before placement into scintillation vials with 5 ml of scintillation cocktail (Ultima Gold LSC-cocktail; Packard Bioscience, Meriden, Conn., U.S.A.) being added. Vials were left to stand overnight before the radioactivity was determined using a Model 1409 DSA Liquid Scintillation counter (EG&E Wallac, Gaithersburg, Md., U.S.A.).
(§3) The resulting radioligand binding curves were analyzed by nonlinear regression using the program PRISM 3.0 (GraphPad Software, San Diego, Calif.) in order to derive ligand affinity estimates for the cannabinoid receptor(s).

Data set [2] deals with T3, CB1 receptor (Rattus norvegicus, UniProt P20272).
T3 construct: the cerebellum was dissected away from the rest of the brain, weighed and homogenised; from tissue; host or cells: Sprague Dawley rat cerebellum membranes
Kind of data set: Radioligand binding assay, rat cerebellum membranes. As to the method: as §1
Sprague Dawley rats of either sex (200-300 g) were killed by gassing with 80% CO2 in O2 and decapitation, and the entire brain excised rapidly and placed in ice-cold Tris-HCl buffer (Tris 50 mM, MgCl2 3 mM, EGTA 0.2 mM, pH to 7.4 with HCl). On ice, the cerebellum was dissected away from the rest of the brain, weighed and homogenised (PT-DA 1205/2EC Polytron Aggregate; Kinematica, Luzernerstrasse Switzland) in 10 volumes of ice-cold Tris-HCl buffer. The homogenate was then made up to 20 volumes and centrifuged (Model J2-M1, Beckman, Fullerton, Calif., U.S.A.) at […] for 15 min at 4° C.). Subsequently, the supernatant was discarded, the pellet resuspended in 20 volumes of buffer and centrifuged as before. The resulting pellet was then resuspended in 20 volumes of buffer and assayed for protein content using the method of Bradford (Bradford, 1976) in a Novaspec II spectrophotometer (Pharmacia Biotech; with bovine serum albumin (BSA; Hömosafe BSA, c/o ‘ScimaR’ Templestowe, Australia) as the standard. The homogenate was then recentrifuged and the final pellet resuspended in Tris-HCl buffer at a protein concentration of 5 mg/ml and stored in 500 μl aliquots at −80° C. until used in the binding assay.
as §2, §3

Where a name gives a salt, the structure may show the parent alone. A value given as a limit tells only on which side of the number the result lay.

T1 sequence (P47746 whole entry): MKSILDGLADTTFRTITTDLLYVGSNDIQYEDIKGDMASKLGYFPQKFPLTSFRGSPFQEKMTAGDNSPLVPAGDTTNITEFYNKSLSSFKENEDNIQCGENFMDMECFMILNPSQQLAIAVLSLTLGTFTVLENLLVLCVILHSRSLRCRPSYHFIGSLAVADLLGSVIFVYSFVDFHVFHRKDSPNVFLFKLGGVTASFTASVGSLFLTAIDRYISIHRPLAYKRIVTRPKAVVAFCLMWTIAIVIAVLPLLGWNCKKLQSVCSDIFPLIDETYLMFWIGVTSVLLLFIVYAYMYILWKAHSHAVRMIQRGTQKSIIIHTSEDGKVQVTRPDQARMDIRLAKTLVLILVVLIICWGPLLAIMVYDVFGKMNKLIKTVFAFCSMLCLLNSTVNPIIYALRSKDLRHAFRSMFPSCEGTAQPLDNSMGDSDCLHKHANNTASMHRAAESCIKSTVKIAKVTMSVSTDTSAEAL
T3 sequence (P20272 whole entry): as the sequence (P47746 whole entry) above, with D95E counted along it

As usually defined, the melting point is the temperature, or range, at which the solid turns liquid. Turning to `c1ccc(Cc2noc(-c3cn(CCN4CCCC4)c4ccccc34)n2)cc1` (as salt: tartrate) [Compound 1, 3-(3-Benzyl-[1,2,4]-oxadiazol-5-yl)-1-[2-(pyrrolidin-1-yl)ethyl]-1H-indole], the melting point lay within 59 to 60 °C. As for `CCCCC/C=C\C/C=C\C/C=C\C/C=C\CCCC(=O)NCCO` [Anandamide, reference compound], the inhibition at 1 µM at CB1 receptor [1] turned out to be 84%. In general, IC50 refers to the point on the concentration scale where inhibition reaches its midpoint. A lower IC50 goes with higher potency. For the molecule `c1ccc(Cc2noc(-c3cn(CCN4CCOCC4)c4ccccc34)n2)cc1` [Compound 2, 3-(3-Benzyl-[1,2,4]-oxadiazol-5-yl)-1-[2-(morpholin-4-yl)ethyl]-1H-indole], the IC50 on CB2 receptor and at CB1 receptor [2] was 1000 nM each time. In addition, the inhibition at 1 µM at CB1 receptor [1] turned out to be 96%. Molecule `c1ccc(-c2noc(-c3cn(CCN4CCOCC4)c4ccccc34)n2)cc1` [Compound 3, 3-(3-Phenyl-[1,2,4]-oxadiazol-5-yl)-1-[2-(morpholin-4-yl)ethyl]-1H-indole] returned a melting point of 144 to 146 °C. At CB2 receptor, this molecule showed an IC50 of 1000 nM. In addition, the inhibition at 1 µM at CB1 receptor [1] was 83%. Besides, the IC50 at CB1 receptor [2] came to 1000 nM. `c1csc(Cc2noc(-c3cn(CCN4CCOCC4)c4ccccc34)n2)c1` [Compound 4, 1-[2-(Morpholin-4-yl)ethyl]-3-(3-thien-2-ylmethyl-[1,2,4]oxadiazol-5-yl)-1H-indole]: the inhibition at 1 µM at CB1 receptor [1] amounted to 81%. Besides, on CB1 receptor [2], the IC50 is 100 nM.

Regarding `c1ccc(Cc2noc(-c3cn(CCN4CCCCC4)c4ccccc34)n2)cc1` [Compound 5, 3-(3-Benzyl-[1,2,4]oxadiazol-5-yl)-1-[2-(piperidin-1-yl)ethyl]-1H-indole], the inhibition at 1 µM on CB1 receptor [1] was 46%. Take `COc1ccc(Cc2noc(-c3cn(CCN4CCOCC4)c4ccccc34)n2)cc1` [Compound 6, 3-[3-(4-Methoxy-benzyl)-[1,2,4]oxadiazol-5-yl]-1-[2-(morpholin-4-yl)ethyl]-1H-indole]: the values for the IC50 at CB2 receptor and on CB1 receptor [2] were 2800 nM and 200 nM, respectively. The inhibition at 1 µM at CB1 receptor [1] came out at 39%. With `Brc1ccc(Cc2noc(-c3cn(CCN4CCOCC4)c4ccccc34)n2)cc1` [Compound 7, 3-[3-(4-Bromo-benzyl)-[1,2,4]oxadiazol-5-yl]-1-[2-(morpholin-4-yl)ethyl]-1H-indole], the inhibition at 1 µM at CB1 receptor [1] was 58%. `CCCCCn1cc(-c2nc(Cc3ccccc3)no2)c2ccccc21` [Compound 8, 3-(3-Benzyl-[1,2,4]oxadiazol-5-yl)-1-pentyl-1H-indole]: the IC50 at CB2 receptor turned out to be 400 nM; on CB1 receptor [2], 6 nM. Moreover, the inhibition at 1 µM on CB1 receptor [1] turned out to be 100%.

Take `c1ccc(CCc2noc(-c3cn(CCN4CCOCC4)c4ccccc34)n2)cc1` [Compound 9, 1-[2-(morpholin-4-yl)ethyl]-3-(3-phenethyl-[1,2,4]oxadiazol-5-yl)-1H-indole]: the IC50 at CB2 receptor was found to be 1200 nM. Also, the inhibition at 1 µM on CB1 receptor [1] was found to be 90%.

Take `Clc1ccccc1Cc1noc(-c2cn(CCN3CCOCC3)c3ccccc23)n1` [Compound 10, 3-[3-(2-Chlorobenzyl)-[1,2,4]-oxadiazol-5-yl]-1-[2-(morpholin-4-yl)ethyl]-1H-indole]: the inhibition at 1 µM at CB1 receptor [1] came out at 95%. As for `c1ccc(-c2ccc(-c3noc(-c4cn(CCN5CCOCC5)c5ccccc45)n3)cc2)cc1` [Compound 11, 3-[3-(Biphenyl)-[1,2,4]oxadiazole-5-yl]-1-[2-(morpholin-4-yl)ethyl]-1H-indole], the IC50 at CB2 receptor and on CB1 receptor [2] was more than 10000 nM each time. For the same molecule, the “CB1 (MVD) % inh at 1.0 μM” value at CB1 receptor [1] is given as 11%. With `c1ccc2cc(Cc3noc(-c4cn(CCN5CCCC5)c5ccccc45)n3)ccc2c1` [Compound 12, 3-[3-(naphth-2-ylmethyl)-[1,2,4]-oxadiazol-5-yl]-1-[2-(pyrolidin-1-yl)ethyl]-1H-indole], on CB1 receptor [1], the “CB1 (MVD) % inh at 1.0 μM” value is recorded as 96%. As to `c1ccc2cc(Cc3noc(-c4cn(CCN5CCOCC5)c5ccccc45)n3)ccc2c1` [Compound 13, 3-[3-(naphth-2-ylmethyl)-[1,2,4]-oxadiazol-5-yl]-1-[2-(morpholin-4-yl)ethyl]-1H-indole], the inhibition at 1 µM at CB1 receptor [1] was found to be 54%. Consider `CCOC(=O)CCCCn1cc(-c2nc(Cc3ccc4ccccc4c3)no2)c2ccccc21` [Compound 14, Ethyl 5-([3-(naphth-2-ylmethyl)-[1,2,4]-oxadiazole-5-yl]-1H-indol-1-yl)pentanoate], for which the “CB1 (MVD) % inh at 1.0 μM” value on CB1 receptor [1] stood at 42%. Still for that read-out and setting: the same measure for `O=C(O)CCCCn1cc(-c2nc(Cc3ccc4ccccc4c3)no2)c2ccccc21` [Compound 15, 5-([3-(Naphth-2-ylmethyl)-[1,2,4]-oxadiazole-5-yl]-1H-indol-1-yl)pentanoic acid]: 54%; for `CCOC(=O)CCn1cc(-c2nc(Cc3ccc4ccccc4c3)no2)c2ccccc21` [Compound 16, Ethyl 3-([3-(naphth-2-ylmethyl)-1,2,4-oxadiazol-5-yl]-1H-indol-1-yl)propanoate]: 77%. `Cc1c(C(=O)c2cccc3ccccc23)c2cccc3c2n1[C@@H](CN1CCOCC1)CO3` [WIN-55212, WIN-55212-2, reference compound]: the inhibition at 1 µM at CB1 receptor [1] stood at 100%.
